Test results reported in patent US20160250285A1, “NEUROPROTECTIVE PEPTIDES” (priority 2013, published 2016).
Entries after “also recorded” stand apart in the source; their conditions may differ. Like-named read-outs stand apart in the source and are kept apart here.

How the values were obtained:
[1] = tested on: primary cortical neuronal cultures; experiment: In vitro ischemia / oxygen-glucose deprivation (OGD) model, neurons; format: cell-based, rat; details: for neuroprotection when added for 15 minutes after OGD: FIGS. 31, 20, 22, 1 μM and 5 μM in FIG. 31; for neuroprotection when added post-in vitro ischemia/OGD: added after anaerobic incubation until experiment end (FIGS. 3b, 16, 17)
Description: Establishment of cortical cultures was as previously described (Meloni et al. 2001). Briefly, cortical tissue from E18-E19 Sprague-Dawley rats was dissociated in Dulbecco's modified Eagle medium (DMEM; Invitrogen, Australia) supplemented with 1.3 mM L-cysteine, 0.9 mM NaHCOa, 10 units/ml papain (Sigma, USA) and 50 units/ml DNase (Sigma) and washed in cold DMEM/10% horse serum. Neurons were resuspended in Neurobasal (Invitrogen) containing 2% B27 supplement (B27; Invitrogen). Before seeding, 96-well sized glass wells (6 mm diameter, ProTech, Australia) or 96-well plastic plates (ProSciTech, Australia) were coated with poly-D-lysine overnight (50 ml/well: 50 mg/mL; 70-150 K, Sigma). Excess poly-D-lysine solution was then removed and replaced with Neurobasal (containing 2% B27; 4% fetal bovine serum; 1% horse serum; 62.5 mM glutamate; 25 mM 2-mercaptoethanol; and 30 mg/mL streptomycin and 30 mg/mL penicillin). Neurons were plated to obtain ≈10,000 viable neurons for each well on day in vitro 11-12. Neuronal cultures were maintained in a CO2 incubator (5% CO2, 95% air balance, 98% humidity) at 37° C. On day in vitro 4 one third of the culture medium was removed and replaced with fresh Neurobasal/2% B27 containing the mitotic inhibitor, cytosine arabinofuraNOside (1 mM final concentration; Sigma). On day in vitro 8 one half of the culture medium was replaced with Neurobasal/2% B27. Cultures were used on day in vitro 11 or 12 after which time they routinely consist of >97% neurons and 1-3% astrocytes (Meloni et al. 2001).
The in vitro ischemia model used for primary cortical neuronal cultures was performed as previously described (Meloni et at 2011) Briefly, culture media was removed from wells (glass 96-well plate format) and washed with 315 μl of glucose free balanced salt solution (BSS; mM: 116 NaCl, 5.4 KCl, 1.8 CaCl2, 0.8 MgSO4, 1 NaH2PO4; pH 6.9) before the addition of 60 μl BSS containing cell penetrating or control peptides (see Table 1). A non-peptide positive control consisting of the glutamate receptor blockers (5 μM MK801/5 μM 6-cyano-7-nitroquinoxaline: MK801/CNQX) was also included. In vitro ischemia was initiated by placing wells in an anaerobic incubator (Don Whitely Scientific, England; atmosphere of 5% CO2, 10% H2 and 85% argon, 98% humidity) at 37° C. for 55 minutes. Upon removal from the anaerobic incubator, 60 μl of Neurobasal/2% N2 supplement was added to the wells and cultures incubated for a further 24 hours at 37° C. in the CO2 incubator. Control cultures received the same BSS wash procedures and media additions as ischemic treated cultures before incubation at 37° C. in the CO2 incubator.
Control cultures underwent the same BSS wash procedures and media additions as OGD treated cultures.
Twenty-four hours after insult, neuronal cultures were examined by light microscopy for qualitative assessment of neuronal cell viability. Neuronal viability was quantitatively measured by 3-(4,5,dimethyliazol-2-yl)-5-(3-carboxymethoxy-phenyl)-2-(4-sulfophenyl)-2H-tetrazolium salt (MTS) assay (Promega, Australia). The MTS assay measures the cellular conversion of the tetrazolium salt to a water-soluble brown formazan salt, which is detected spectrophotometrically at 490 nm. MTS absorbance data were converted to reflect proportional cell viability relative to both the untreated and treated controls, with the untreated control taken as 100% viability, and presented as mean±SEM. […] Viability data was analysed by ANOVA, followed by post-hoc Fischer's PLSD test, with P<0.05 values considered statistically significant. Four- to six wells were used in all assays.

[2] = tested on: primary cortical neuronal cultures; details: for neuroprotection, peptide present during the 5 minute glutamic acid insult only: FIG. 28; for neuroprotection, 10 minute pre-exposure removed immediately prior to insult: FIG. 29, FIG. 14
[3] = tested on: primary rat astrocytes; experiment: In vitro ischemia/OGD model, astrocytes; format: cell-based; details: 2 μM, 15 min prior to OGD (FIG. 42)
Description: A brain endothelial cell line (bEND3) and a neuroblastoma cell line (SH-SY5Y) were also used for some experiments. bEND3 and SH-SY5Y cells were cultured using standard techniques in DMEM plus 5 or 15% foetal calf serum. Rat primary astrocytes were obtained and cultured as described for cortical neurons except DMEM plus 10% foetal calf serum was used instead of Neurobasal/2% B27, and the mitotic inhibitor, cytosine arabinofuraNOside was not used.
The in vitro ischemia model was also used for bEND3 cells, SH-SY5Y cells, and astrocytes. For bEND3 cells anaerobic incubation was extended to 2-3 hours and upon removal from the anaerobic incubator, 60 μl of DMEM/2% FCS was added to wells. […]
Twenty-four hours after insult, neuronal cultures were examined by light microscopy for qualitative assessment of neuronal cell viability. Neuronal viability was quantitatively measured by 3-(4,5,dimethyliazol-2-yl)-5-(3-carboxymethoxy-phenyl)-2-(4-sulfophenyl)-2H-tetrazolium salt (MTS) assay (Promega, Australia). The MTS assay measures the cellular conversion of the tetrazolium salt to a water-soluble brown formazan salt, which is detected spectrophotometrically at 490 nm. MTS absorbance data were converted to reflect proportional cell viability relative to both the untreated and treated controls, with the untreated control taken as 100% viability, and presented as mean±SEM. […]

Row | Compound | neuroprotection when added for 15 minutes after OGD [1] | IC50 ([1]; Table 3, from FIG. 3a, peptide during ischemia and at 50% dose after, viability 24 h, MTS, read-out: IC50: In vitro ischemia model) [nM] | neuroprotection when added post-in vitro ischemia/OGD [1] | neuroprotection when added 15 minutes post-insult ([2]; 15 min post-glutamic acid (FIG. 1d)) | neuroprotection, peptide present during the 5 minute glutamic acid insult only [2] | neuroprotection, 10 minute pre-exposure removed immediately prior to insult [2] | fold more potent than TAT-D, based on IC50 values ([2]; glutamic acid model) [fold] | MTS absorbance levels relative to baseline ([2]; normal neurons and following injury) | IC50 ([2]; read-out: IC50: Glutamic acid model, Table 3, from dose response graph FIG. 1a, peptide 15 min prior to and during 100 μM glutamic acid (5 min), viability 24 h, MTS) [nM] | IC50 ([2]; read-out: IC50: Glutamic acid model, Table 4, polyarginine peptides, from dose response graph FIG. 1e) [nM] | astrocyte cell death after in vitro ischemia [3] | efficacy at higher concentrations, added post-in vitro ischemia ([1]; FIG. 3b) | neuroprotection, peptide for 10 minutes, 1 to 3 hours prior to OGD ([1]; FIG. 32) | IC50 [2] [nM] | neuroprotective efficacy at the higher concentration ([2]; 5 μM, dose response study) | neuroprotection (neuronal viability) ([2]; peptide 15 min prior to and during glutamic acid exposure, viability 24 h, MTS)
1 | N=C(N)NCCC[C@H](NC(=O)[C@H](CCCNC(=N)N)NC(=O)[C@H](CCCNC(=N)N)NC(=O)[C@H](CCCNC(=N)N)NC(=O)[C@H](CCCNC(=N)N)NC(=O)[C@H](CCCNC(=N)N)NC(=O)[C@H](CCCNC(=N)N)NC(=O)[C@H](CCCNC(=N)N)NC(=O)[C@@H](N)CCCNC(=N)N)C(=O)O [Peptide R9] | not | 6000 | displayed neuroprotective effects; also recorded: effective | mildly effective | effective | effective | 17 | increase MTS absorbance levels above baseline levels | 780 | 830 |  |  |  |  |  | 
2 | H-RRRRRRRRRRRRRRRRRR-OH [Peptide R18] | Neuroprotection is displayed |  | displayed neuroprotective effects; also recorded: effective |  | effective | effective |  |  |  |  | reduced astrocyte cell death | reduced efficacy | effective | 240 | reduced | showed significant neuroprotection
